Experimental findings from PubChem BioAssay AID2305 (GlaxoSmithKline (GSK), 2010) are described below.

In this assay the test system is P. falciparum 3D7 growth, pLDH absorbance. In words: P. falciparum 3D7 growth inhibition, dose response, strain 3D7 (AID 2305).

pIC50: −log10 of the molar value. “And” between values parts separate entries of the source, which are not always exact repeats. Equal entries are not always repeated.

In the case of `O=C(/C=C/c1ccc(Cl)c(Cl)c1)NCCCCCN1CCC(NC(=O)c2cc(Cl)ccc2F)CC1`, the negative logarithm of the IC50 (pIC50) (in general, −log10 of the IC50, conventionally taken in molar units) is 5.94.
Compound `Oc1ccc2[nH]cc(C3CCN(CCCCCCCCCN4CCC(c5c[nH]c6ccc(O)cc56)CC4)CC3)c2c1` gave a pIC50 of 6.51. This pIC50 is 0.57 log units higher than that of the compound before.
In the case of `Cn1nc(-c2ccc(CN[C@@H]3CCc4ccc(O)cc43)cc2)c2cnc(NC3CCCC3)nc21` it was 5.95.
For the compound `O=C(/C=C/c1ccc(Cl)c(Cl)c1)NCCCCCN1CCCC(C(=O)Nc2ccc(F)c(Cl)c2)C1` (stereo not drawn), the pIC50 was 6.05.
`Cc1cccc2[nH]c(-c3ccc(-c4ccc(NC(=O)NCc5ccccc5)cc4)s3)nc12` gave a pIC50 of 6.11.
Compound `O=c1ccc2ccc(F)c3c2n1CC3CN1CCC(NCc2cccc(-c3ccccc3F)c2)CC1` (stereo not drawn) showed a pIC50 of 5.96.
In the case of `Oc1ccc(CCNc2nc(NCCCOc3ccccc3-c3ccc(C(F)(F)F)cc3)nc(N3CCNCC3)n2)cc1` it was 6.05.
On to `O=C(NC1CC1)c1ccc(N2CCN(Cc3ccc(Cl)cc3)CC2)nc1`, for which the pIC50 is 5.87.
In the case of `CC(=O)Nc1ccc(C(=O)NC2CCN(c3ccnc4cc(Cl)ccc34)C2)cc1` (stereo not drawn) it was 6.09.
`COc1cc(OC)nc(C(Sc2ccc(NC(=O)c3cccs3)cc2)c2ccccc2)n1` (stereo not drawn) showed a pIC50 of 7.22.
As for `CC1(C)N=C(N)N=C(N)N1OCc1ccc2ccccc2c1CON1C(N)=NC(N)=NC1(C)C`, the figure is 6.18; as for `N#Cc1ccc(NC(=NC2CCN(Cc3ccccc3)CC2)Nc2ccccc2Cl)c(O)c1`, 6.52; as for `COc1cc2ncnc(Nc3ccc4nc(Cc5ccccc5)[nH]c4c3)c2cc1OC`, 5.83.
For `O=C(Nc1cccc(-c2cccc(-c3nc4ccc(F)cc4[nH]3)c2)c1)Nc1ccc2c(c1)OCO2`, the pIC50 was 6.85.
In the case of `CC(C)(C)c1ccc(CN2CCC(CNC(=O)c3cc(-c4ccccc4)nc4ccccc34)CC2)cc1` it was 5.99; in that of `O=C(NCCCc1ccccc1)c1csc(C2CCCN(C(=O)c3ccc(O)c(-c4ccccc4)c3)C2)n1` (stereo not drawn), 6.04; in that of `CN1CCN(CCCN(Cc2ccc(-c3ccc(CNCCc4ccccc4)cc3)cc2)C(=O)c2cccs2)CC1`, 5.84.
In the case of `COc1cc(CCON2C(N)=NC(N)=NC2(C)C)cc(OC)c1OC` it was 7.30; in that of `COc1ccc(NC(=O)NC2CCN(c3ccnc4cc(Cl)ccc34)CC2)cc1`, 6.14; in that of `CCn1cc(C=C2Oc3c(ccc(O)c3CN3CCCCC3)C2=O)c2ccccc21`, 6.55.
For `c1cc(CNCCc2ccncc2)cc(-c2ccc(-c3nc4ccccc4[nH]3)s2)c1`, the pIC50 was 6.47.
Turning to `c1ccc(CCNCc2ccc(-c3ccc(CNC4CCN(Cc5ccccc5)CC4)cc3)nc2)cc1`, the pIC50 is 6.35.
As for `O=C(Nc1cccc(-c2cccc(-c3nc4ccccc4[nH]3)c2)c1)Nc1ccc(F)c(F)c1F`, the figure is 7.22.
The compound `CC(C)c1cccc(OCC2CCN(c3ncc(C(=O)NC4CC4)cc3Cl)CC2)c1` showed a pIC50 of 6.17. Against the preceding compound, the pIC50 is 1.05 log units lower.
As for `CN1CCN(Cc2ccc(-c3ccc4c(Nc5ccc(Cl)cc5F)ccnc4c3)o2)CC1`, the figure is 6.82; as for `Nc1nc(N)c2c(ccc3c2ccn3Cc2ccc(F)cc2)n1`, 8.00; as for `CCOC(=O)c1cccc(NC(=O)Nc2cccc(-c3ncc(OCCCN)c4c3nc(-c3nonc3N)n4CC)c2)c1`, 6.05.
As for `CCc1ccc(C2CCN(CCCCNC(=O)c3ccc(NC(=O)c4ccc(Cl)cc4)cc3)CC2)c(OC(C)=O)c1`, the figure is 6.82.
As for `CC(O)CNc1nc2ccccc2n1CC(=O)Nc1cccc(C(=O)Nc2cccc(C(F)(F)F)c2)c1` (stereo not drawn), the figure is 7.00.
Turning to `Cc1cc(N(C)CCN(C)C)nc(Nc2ccc(Cl)cc2)n1`, the pIC50 is 6.01.
As for `Nc1cc(-c2ccc3ccccc3c2)nc2ccccc12`, the figure is 6.15; as for `O=C(Nc1ccccc1O)c1ccc(Oc2cccc(C(=O)Nc3ccccc3O)c2)cc1`, 6.10; as for `Cc1cc(N(C)C2CCN(C)C2)nc(Nc2ccccc2Cl)n1` (stereo not drawn), 6.12.
In the case of `COc1ccc(CN2CCC(CNCc3cccc(-c4ccccc4)c3)CC2)cc1` it was 6.62; in that of `N#Cc1cc(C(=O)c2cc(Cl)ccc2O)cn(-c2cc(Cl)cc(Cl)c2)c1=O`, 6.07.
As for `O=c1cc(NCCCNCc2ccc(Cl)c(Cl)c2)[nH]c2ccc(Oc3ccccc3)cc12`, the pIC50 was 6.07.
Compound `Cc1cc2ccc(-c3cccc(CN)c3)cc2nc1N` gave a negative-log IC50 (pIC50) of 6.12.
As for `NC(N)=NN=Cc1c2ccccc2c(Cl)c2c(Cl)cccc12`, the figure is 6.06; as for `COc1ccc(C(F)(F)F)cc1N1CCN(CCCCNC(=O)c2ccc(NC(=O)c3ccc(Cl)cc3)cc2)CC1`, 6.04.
As for `Cc1cccc(OCC(=O)Nc2cccc(NC(=O)COc3cccc(C)c3)n2)c1`, the figure is 6.17; as for `COc1ccc(N2CCN(CCCCNCc3ccc(NC(=O)c4cc(Cl)cc(Cl)c4)cc3)CC2)c(OC)c1`, 6.60.
The compound `COc1ccc2nc(C)cc(NN=Cc3ccccc3)c2c1` showed a pIC50 of 5.99.
In the case of `COc1ccc(C2CCN(CCCCNC(=O)c3ccc(NC(=O)c4ccc(Cl)cc4)cc3)CC2)cc1Cl` it was 6.08; in that of `CC1(C)N=C(N)N=C(N)N1c1cccc(Cl)c1`, 7.40.
In the case of `CN1CC=C(c2c[nH]c3ccc(-c4ccccc4)cc23)CC1`, the pIC50 was 6.11.
In the case of `CC(CN(C)C)C(=O)Nc1cccc(-c2ccc(-c3nc4ccc(C(F)(F)F)cc4[nH]3)cc2)c1` (stereo not drawn) it was 6.60; in that of `Cc1ccccc1C1CCN(C2CCC(NC(=O)/C=C/c3c[nH]c4ccccc34)CC2)CC1` (stereo not drawn), 6.09; in that of `COc1c(Br)cc(Br)cc1-c1ccc(CN2C3CCCC2CCC3)[nH]1`, 5.95.
As to `Cc1ccc2[nH]cc(/C=C/C(=O)NC3CCC(CCN4CCc5ccc(C#N)cc5CC4)CC3)c2c1` (stereo not drawn), the negative logarithm of the IC50 (pIC50) was 6.04.
As for `Cc1ccc2nc(C)cc(NC(=O)Nc3ccc(N(C)C)cc3)c2c1`, the figure is 6.27; as for `CC(C)NCc1ccc(-c2ccc(-c3nc4ccc(C(F)(F)F)cc4[nH]3)cc2)cc1`, 6.57.
In the case of `COc1ccc(CNCc2ccccc2)cc1-c1ccc(S(=O)(=O)NCCN2CCCC2)cc1` it was 6.09; in that of `CCc1ccc(C2CCN(CCCCNC(=O)c3ccc(NC(=O)c4ccc(Cl)cc4)cc3)CC2)c(OCC(=O)OC)c1`, 5.99; in that of `O=C(CCc1ccc(Cl)cc1Cl)NC1CCC(CN2CCC(c3c[nH]c4ccccc34)CC2)CC1` (stereo not drawn), 6.05 and 6.66.
For `CCC1CN2CCc3c([nH]c4ccccc34)C2CC1CC1=NCCc2c1[nH]c1ccc(OC)cc21` (stereo not drawn), the pIC50 is 6.19.
The compound `Cc1ccc(S(=O)(=O)/N=C(\N)NC(N)=O)cc1` had a pIC50 of 6.10.
In the case of `O=C(C(=O)c1ccc(Nc2ccnc3cc(-c4ccccn4)ccc23)cc1)c1ccccc1` it was 6.01; in that of `O=C(Cc1n[nH]c(=O)c2ccccc12)Nc1cccc(C(=O)Nc2cccc(C(F)(F)F)c2)c1`, 6.77.
In the case of `CCCCN(C(=O)c1ccccc1C)c1nnc(-c2ccccc2C)s1` it was 6.03; in that of `O=c1cc(NCC2(CNCc3cn(Cc4ccccc4)c4ccccc34)CCCCC2)[nH]c2ccccc12`, 6.17.
As for `CNC(=O)c1cnc(Nc2ccc(OCC(O)CN(C)C)cc2)nc1Nc1cccc(OC(C)C)c1` (stereo not drawn), the figure is 6.85; as for `CCCC(CNCc1cccc(I)c1)CNc1cc(=O)c2ccccc2[nH]1` (stereo not drawn), 6.33.
In turn, `Nc1n[nH]c(-c2ccccc2Nc2ccnc3cc(-c4nccs4)ccc23)n1` had a pIC50 of 5.95.
